{"source": "patent US20110076258A1", "about": "“METHODS OF MODULATING T CELL- DEPENDENT IMMUNE RESPONSES” (Converge Biotech Inc., priority 2008, published 2011)", "key": {"DO11.10 T cell clones": {"system": "DO11.10 T cell clones", "test": "Ca2+ imaging with P2 receptor agonists", "type": "cell-based, mouse"}, "ERK": {"system": "ERK", "test": "ERK phosphorylation time course after CD3 stimulation, TCR signaling blocked with PP2 at 30 min", "type": "cell-based, mouse", "details": "for ERK phosphorylation / activity: added in combination with PP2", "description": "(§1) After 30 min of stimulation, cells were either left untreated (first panel on the left), or treated with the src-like kinase inhibitor PP2 either alone (second panel) or in combination with oATP (third panel) or ARL (fourth panel).\n(§2) In order to distinguish between TCR dependent and independent ERK activation, TCR signaling was blocked at 30 min after CD3 activation with the tyrosine kinase inhibitor PP2, which inhibits TCR dependent Ick/fyn src-like kinase activity."}, "CRAC channels": {"system": "CRAC channels", "test": "Ca2+ dependent CRAC inactivation, two sequential Ca2+ additions after tapsigargin store depletion (Fura-2)", "type": "cell-based, mouse", "details": "in the presence of CCCP", "description": "FIG. 1: Increased mitochondrial Ca^2+ buffering in crt^−/− T cells. • a) After ER Ca^2+ depletion with tapsigargin, CCE was induced in crt^−/− and crt^+/+ T cell clones by the addition of 0.5 mM Ca^2+ to the extracellular medium (see Example 1). After complete washout of extracellular Ca^2+, the mitochondrial Ca^2+ buffering was visualized by the addition of ionomycin. • b) Histograms representing mitochondrial Ca^2+ content after CCE with 0.5, 1 and 2 mM extracellular Ca^2+ in crt^−/− and crt^+/+ T cell clones. • c) Increased mitochondrial Ca^2+ buffering in crt^−/− T cells retards CRAG inactivation. Cells were treated with tapsigargin followed by two separate additions of Ca^2+ to the extracellular medium (see Example 1) (see also FIG. 2C). The rate of rise of cytosolic Ca^2+ concentration was calculated at the first and second addition of Ca^2+. […] (*, P<0.05, **, P<0.001, ***, P<0.0001)\nFIG. 2: Reduced Ca^2+ in the ER, unaltered mitochondrial membrane potential and decreased CRAC inactivation in crt^−/− T cells. • a) The ER Ca^2+ content of Fura-2 loaded D011.10 TCR transgenic T cell clones was assessed by addition of the SERCA pump inhibitor tapsigargin to a medium devoid of Ca^2+ (see Example 1). The passive leak of Ca^2+ from the ER into the cytosol is seen as a slow transient rise in the cytosolic Ca^2+ concentration. […]"}, "naïve CD4^+ T cells [1]": {"system": "naïve CD4^+ T cells", "test": "IL-2 ELISA in culture supernatants, plate-bound CD3 and CD28 stimulation", "type": "cell-based, mouse", "from_the_text": "An inhibitory effect of oATP on peripheral blood T cell proliferation has been described (Baricordi et al., Blood 87:682-690 (1996)). […] We therefore hypothesize that ATP released from activated T cell is part of an autocrine loop, which plays an essential role in productive T cell activation."}, "naive CD4 T cells": {"system": "naive CD4 T cells", "test": "T cell proliferation by CFSE dilution, plate-bound CD3 and CD28 mAbs", "type": "cell-based, mouse", "details": "IL-2 at 250 U/ml; PMA"}, "Egr2 and Egr3": {"system": "Egr2 and Egr3", "test": "Real-time PCR of anergy related genes Egr2 and Egr3", "type": "cell-based, mouse", "details": "PMA together with oATP", "from_the_text": "NFAT nuclear translocation without concomitant MAPK activation, which can be obtained by ionomycin treatment, implements a transcriptional program leading to T cell anergy (Macian et al., Cell 109:719-731 (2002)). […] Then, we hypothesized that activation of T cells in the presence of oATP could induce T cell anergy. […] The effect of oATP was not due to altered turn-over of the TCR/CD3 complex at the cell surface, as determined by FACS analysis (data not shown)."}, "ZAP-70": {"system": "ZAP-70", "test": "ZAP-70 phosphorylation after CD3 stimulation, PP2 added at 30 min", "type": "cell-based, mouse", "details": "PP2 at 30 min after CD3 activation", "description": "as §1, §2"}, "NFAT1": {"system": "NFAT1", "test": "NFAT1 nuclear localization after T cell stimulation", "type": "cell-based, mouse", "description": "as §2\nNFAT nuclear translocation without concomitant MAPK activation, which can be obtained by ionomycin treatment, implements a transcriptional program leading to T cell anergy (Macian et al., Cell 109:719-731 (2002)). […] Then, we hypothesized that activation of T cells in the presence of oATP could induce T cell anergy."}, "crt^−/− CD4^+ T cells [2]": {"system": "crt^−/− CD4^+ T cells"}, "MAPK": {"system": "MAPK", "test": "Protracted MAPK (p38, Erk) activation after 16 h CD3 stimulation", "type": "cell-based, mouse", "details": "crt^−/− T cells, CD3 antibodies 16 h"}, "crt^−/− CD4^+ T cells [3]": {"system": "crt^−/− CD4^+ T cells", "test": "Propidium iodide (PI) staining of treated cells"}, "naïve CD4^+ T cells [4]": {"system": "naïve CD4^+ T cells", "test": "ATP synthesis after T cell activation with CD3 antibodies", "type": "cell-based, mouse", "excerpt": "CCE induced by antigenic activation of crt^−/− CD4^+ T cells might therefore be linked to a higher ATP production compared to crt^+/+ cells."}, "T cell clones": {"system": "T cell clones", "test": "Cellular ATP content by luciferase assay after TCR triggering", "type": "cell-based", "details": "200 μM PX10 preincubation 30 minutes", "description": "FIG. 10: The pannexin blocking peptide PX10 increases the intracellular ATP concentration upon TCR triggering.\nFinally, we tested whether the inhibition of pannexin-mediated ATP release might lead to a fast accumulation of ATP following T cell activation. T cell clones were preincubated with 200 μM PX10 for 30 minutes. They were then stimulated with biotinylated anti-CD3 antibodies followed by crosslinking with strepavidine. Samples were collected at indicated time points, detergent-solubilized and frozen until their use in a standard luciferase assay to determine cellular ATP content."}, "human T cells": {"system": "human T cells", "test": "Proliferation of CFSE-loaded T cells, plate-bound anti-CD3/28 (FACS)", "type": "cell-based", "details": "100 μM oATP or 200 μM of PX10 peptide, four days", "description": "Our results point to a role for pannexin hemichannels in ATP release in T cells. […] CFSE-loaded human T cells were stimulated with plate-bound anti-CD3/28 antibodies in the presence of 100 μM oATP or 200 μM of PX10 peptide. Four days later, the proliferation was measured by FACS analysis."}, "mouse T cells": {"system": "mouse T cells", "test": "IL-2 secretion by ELISA", "type": "cell-based"}}, "note": "Entries after “also recorded” stand apart in the source; their conditions may differ. Where two headings read alike, the source gives them in different places."}
{"molecule": "CSc1nc(N)c2ncn([C@@H]3O[C@H](COP(=O)(O)OP(=O)(O)O)[C@@H](O)[C@H]3O)c2n1", "note": "[2MeSADP]", "values": [{"measurement": "cells activated / responsive to P2 subtype preferring agonist", "setting": "DO11.10 T cell clones", "value": 31, "unit": "%"}]}
{"molecule": "CCN(CC)c1ncnc2c1ncn2[C@@H]1O[C@H](COP(=O)(O)OP(=O)(O)C(Br)(Br)P(=O)(O)O)[C@@H](O)[C@H]1O", "note": "[ARL67156]", "values": [{"measurement": "ERK phosphorylation / activity", "setting": "ERK", "value": "increase"}, {"measurement": "ERK phosphorylation / activity", "setting": "ERK; listed as ARL", "value": "increased"}]}
{"molecule": "Nc1ncnc2c1ncn2[C@@H]1O[C@H](COP(=O)(O)OP(=O)(O)OP(=O)(O)O)[C@@H](O)[C@H]1O", "note": "[ATP, adenosine triphosphate]", "values": [{"measurement": "cells with calcium rise", "setting": "DO11.10 T cell clones; 1 mM ATP, Ca^2+ present in the extracellular medium", "value": 52, "unit": "%"}, {"measurement": "cytosolic calcium rise", "setting": "DO11.10 T cell clones; absence of extracellular Ca^2+", "value": "moderate cytosolic calcium rise"}]}
{"molecule": "N#CC(C#N)=NNc1cccc(Cl)c1", "note": "[CCCP]", "values": [{"measurement": "Ca^2+ dependent inactivation of CRAC channels, crt^−/− versus crt^+/+ cells", "setting": "CRAC channels", "value": "comparable"}]}
{"molecule": "CSc1nc(N)c2ncn([C@@H]3O[C@H](COP(=O)(O)OP(=O)(O)OP(=O)(O)O)[C@@H](O)[C@H]3O)c2n1", "note": "[MeSATP]", "values": [{"measurement": "cells activated / responsive to P2 subtype preferring agonist", "setting": "DO11.10 T cell clones", "value": 35, "unit": "%"}]}
{"molecule": "CCCCCCCCCCCCCC(=O)O[C@@H]1[C@@H](C)[C@@]2(O)[C@@H](C=C(CO)C[C@]3(O)C(=O)C(C)=C[C@@H]23)[C@@H]2C(C)(C)[C@]12OC(C)=O", "note": "[PMA, phorbol 12-myristate 13-acetate, reference compound]", "values": [{"measurement": "oATP and PPADS-dependent inhibition of IL-2 expression on addition of PMA", "setting": "naïve CD4^+ T cells [1]; contemporaneous addition", "value": "rescued"}, {"measurement": "oATP inhibition of T cell proliferation on addition of second agent", "setting": "naive CD4 T cells", "value": "completely restored"}, {"measurement": "Egr2 and Egr3 transcription", "setting": "Egr2 and Egr3", "value": "robustly reduced"}]}
{"molecule": "CC(C)(C)n1nc(-c2ccc(Cl)cc2)c2c(N)ncnc21", "note": "[PP2]", "values": [{"measurement": "ERK phosphorylation at later time points", "setting": "ERK; PP2 alone", "value": "did not significantly affect; also recorded: less affected"}, {"measurement": "TCR-dependent phosphorylation of ZAP-70", "setting": "ZAP-70", "value": "affected; also recorded: efficiently inhibited"}]}
{"molecule": "Cc1nc(N=Nc2ccc(S(=O)(=O)O)cc2S(=O)(=O)O)c(COP(=O)(O)O)c(C=O)c1O", "note": "[PPADS]", "values": [{"measurement": "ERK phosphorylation / activity", "setting": "ERK", "value": "significant inhibition"}, {"measurement": "nuclear localization of NFAT1", "setting": "NFAT1", "value": "did not significantly affect"}, {"measurement": "IL-2 in the cell culture supernatant", "setting": "naïve CD4^+ T cells [1]; versus untreated cells, 48 h", "value": "Analogous inhibition"}, {"measurement": "cellular damage due to toxicity, PI staining versus untreated", "setting": "crt^−/− CD4^+ T cells [2]", "value": "did not reveal any difference"}, {"measurement": "prolonged activation of MAPK (p38 MAPK and Erk)", "setting": "MAPK", "value": "almost completely abolished"}]}
{"molecule": "CC[C@H]1/C=C/C=C/C[C@@H](C)[C@H](O)[C@@](C)(O)C(=O)[C@@H](C)[C@H](O)[C@@H](C)C(=O)[C@@H](C)[C@H](O)[C@@H](C)/C=C/C(=O)O[C@@H]2[C@H](C)[C@H](CC1)O[C@]1(CC[C@H](C)[C@H](C[C@@H](C)O)O1)[C@H]2C", "note": "[oligomycin]", "values": [{"measurement": "cellular damage due to toxicity, PI staining versus untreated", "setting": "crt^−/− CD4^+ T cells [3]", "value": "did not reveal any difference"}, {"measurement": "activation induced ATP synthesis", "setting": "naïve CD4^+ T cells [4]", "value": "abolished"}, {"measurement": "nuclear localization of NFAT1", "setting": "NFAT1", "value": "did not significantly affect"}, {"measurement": "prolonged activation of MAPK (p38 MAPK and Erk)", "setting": "MAPK", "value": "almost completely abolished"}]}
{"molecule": "Nc1ncnc2c1ncn2[C@@H]1O[C@H](COP(=O)(O)CP(=O)(O)OP(=O)(O)O)[C@@H](O)[C@H]1O", "note": "[αβMeATP]", "values": [{"measurement": "cells activated / responsive to P2 subtype preferring agonist", "setting": "DO11.10 T cell clones", "value": 18, "unit": "%"}]}
{"molecule": "BzATP", "values": [{"measurement": "cells activated / responsive to P2 subtype preferring agonist", "setting": "DO11.10 T cell clones", "value": 33, "unit": "%"}]}
{"molecule": "WRQAAFVDSY [PX10]", "values": [{"measurement": "intracellular ATP after TCR triggering", "setting": "T cell clones", "value": "rapid intracellular rise of ATP; also recorded: increases"}, {"measurement": "T cell proliferation", "setting": "human T cells", "value": "comparably to oATP"}, {"measurement": "T cell proliferation", "setting": "human T cells; listed as PX10 peptide", "value": "strongly inhibited"}, {"measurement": "IL-2 secretion", "setting": "mouse T cells", "value": "strongly inhibited"}]}
